What all share (format): physicochemical
The nature of series [1]: Comparative stability, Formulation 4 (based on Treanda, mannitol). To be noted: pH 4-5 (bendamustine), pH 4 (Compound (1c)•HCl). The method, then: (§1) The stability of Compound (1c) either as the HCl salt or as the free base was compared to the stability of melphalan HCl and/or bendamustine HCl in various pharmaceutical formulations and at different concentrations and at temperatures of 0° C. or 25° C.
(§2) The stability of the compounds in the pharmaceutical formulations was determined at concentrations within the range from 0.4 mg/mL to 0.5 mg/mL, from 0.9 mg/mL to 1.1 mg/mL, and from 1.8 mg/mL to 2.1 mg/mL.
(§3) The amount of the active pharmaceutical ingredient (API) (Compound (1c), melphalan or bendamustine) in the pharmaceutical formulations at different times during storage was determined using HPLC/UV as described in detail for Example 4 and Example 5.
Treanda® is an injectable formulation of bendamustine hydrochloride, 1H-benzimidazole-2-butanoic acid, 5-[bis(2-chloroethyl)amino]-1-methyl-, 4-(5-(bis(2-chloroethyl)amino)-1-methyl-1H-benzo[d]imidazol-2-yl) butanoic acid monohydrochloride approved by the FDA. Treanda® for injection is provided in a vial containing either 25 or 100 mg of bendamustine HCl as a white to off-white lyophilized powder. Each vial contains either 25 mg or 100 mg of bendamustine hydrochloride and 42.5 mg or 170 mg of mannitol, USP, which is reconstituted in either 0.9% sodium chloride injection, USP, or 2.5% dextrose/0.45% sodium chloride solution injection, USP to a final concentration of 0.2 mg/mL-0.6 mg/mL and adjusted to a pH from 2.5 to 3.5.
A series of 12 mL glass vials each containing 12.5 mg (0.0317 mmol) of bendamustine mono-hydrochloride salt (C16H21C12N3O2·HCl, 394.72 g/mol; MedKoo, 200470) (corresponding to 11.3 mg of bendamustine as the free base) were prepared through weighing out the commercial compound into the vials. To each of the vials either containing bendamustine mono-hydrochloride salt was added 21.3 mg (0.117 mmol) of D-mannitol (C6H14O6, MW 182.17 g/mol; SigmaAldrich, M1902). The mixtures were dissolved in 2.0 mL of double distilled water (dd-H2O) (Arrowhead), the clear colorless solutions were frozen at −78° C. (dry ice/acetone bath), and the solvents were lyophilized off at about 100 mTorr within about 16 h to afford colorless solids.
A stock solution was prepared by dissolving 85.0 mg (0.255 mmol) of Compound (1c) (free base) and 170.4 mg of D-mannitol (0.935 mmol) (C6H14O6, MW 182.17 g/mol; SigmaAldrich, M1902), and 0.503 mL of 0.5072 M aq. HCl (0.255 mmol, 1.0 eq.) (Fluka, 318957) in about 16.0 mL of a mixture of acetonitrile/water (1:1, v/v) with vortexing in clean graduated glass cylinder (25 mL) to afford a stock solution of Compound (1c) as a mono-HCl salt of a concentration of 5.313 mg/mL and a D-mannitol concentration of 10.65 mg/mL. This solution was filtered through a 0.22 μm PTFE syringe filter into a clean 25 mL Erlenmeyer flask. Aliquots of 2.0 mL (2× 1.0 mL; 2× 5.313 mg) of this stock solution were rapidly pipetted into clean 12 mL scintillation vials. The aliquots were frozen at −78° C. (dry ice/acetone bath) and lyophilized at about 100 mTorr for about 16 hours to provide test vials each containing 11.8 mg (0.0319 mmol) of Compound (1c) mono-hydrochloride salt (mono-HCl salt) (corresponding to 10.6 mg of Compound (1c) as a free base) and 21.3 mg (0.117 mmol) of D-mannitol as a colorless powdery solid.
The materials in the vials were dissolved 2.5 mL of double-distilled water (dd-H2O) (Arrowhead) to provide clear colorless, non-viscous stock solutions of a concentration of 4.24 mg/mL of Compound (1c) as the monohydrochloride salt or 4.54 mg/mL of bendamustine as the mono-hydrochloride salt, respectively.
1.0 mL of the stock solution containing 4.24 mg/mL of Compound (1c) as the monohydrochloride salt was diluted with 9.0 mL of 0.9% saline to afford 10.0 mL of a test solution of a concentration of 0.424 mg/mL of Compound (1c) as the monohydrochloride salt and with a pH of about 4. […]

Series [2] can be described thus: Comparative stability, Formulation 3 (based on Evomela, SBE6.5-β-CD). Conditions: Formulation 3, 25° C., 0.4-0.5 mg/mL, pH 5.8-6.1 (melphalan), pH 5-6 (Compound (1c)•HCl). The method, then: as §1, §2, §3
Evomela® is an injectable formulation of melphalan hydrochloride, 4-[bis(2-chloroethyl)amino]-L-phenylalanine hydrochloride, approved by the FDA. Evomela® is supplied as a sterile white to off-white lyophilized powder in a single-dose vial for intravenous use. Each vial containing 50 mg melphalan free base equivalent to 56 mg melphalan hydrochloride and 2,700 mg betadex sulfobutyl ether (SBE6.5-β-CD; sulfobutyl ether β-cyclodextrin sodium) sodium, NF. Normal saline solution (0.9% Sodium Chloride Injection, USP) (8.6 mL as directed) is used to reconstitute Evomela® to a total of 10 mL having a 5 mg/mL nominal concentration of melphalan. The required volume of Evomela® needed for a patient dose is withdrawn from the vial(s) and added to the appropriate volume of 0.9% Sodium Chloride Injection, USP, to a final nominal concentration of 0.45 mg/mL of melphalan. This solution is then infused via an injection port or central venous catheter.
A series of 12 mL glass vials each containing 5.5 mg (0.0165 mmol of Compound (1c) free base and 270 mg of SBE6.5-β-CD, Captisol®) were prepared as described in Example 4.
The cyclodextrin derivative/Compound (1c) free base guest-host inclusion complex was reconstituted by dissolving the guest-host inclusion complex in 0.86 mL of 0.9% saline to provide 1.0 mL of a solution having a nominal concentration of 5.5 mg/mL of Compound (1c) free base.
A 1.0 mL aliquot of this solution was diluted with 10.0 mL of 0.9% saline, and the pH adjusted with 5 μL of a saturated aqueous NaHCO3 solution to provide 11.0 mL of a clear, colorless solution having a nominal concentration of 0.50 mg/mL of Compound (1c) from Compound (1c) free base and a pH from 5.8 to 6.1.
A 1.0 mL aliquot of this solution was diluted with 4.5 mL of 0.9% saline, and the pH adjusted with 5 μL of a saturated aqueous NaHCO3 solution to provide 5.5 mL of a clear, colorless solution having a nominal concentration of 1.0 mg/mL of Compound (1c) from Compound (1c) free base and a pH of about 6.1.
A 1.0 mL aliquot of this solution was diluted with 1.75 mL of 0.9% saline, and the pH adjusted with 5 μL of a saturated aqueous NaHCO3 solution to provide 2.75 mL of a clear, colorless solution having a nominal concentration of 2.0 mg/mL of Compound (1c) from Compound (1c) free base and a pH of about 6.1.
A series of 12 mL glass vials each containing 6.1 mg (0.0165 mmol of Compound (1c) mono-hydrochloride salt (corresponding to 5.5 mg of Compound (1c) free base) and 270 mg of SBE6.5-β-CD, Captisol®) were prepared as described in Example 5.
The cyclodextrin derivative/Compound (1c) mono-HCl salt guest-host inclusion complex was reconstituted by dissolving the guest-host inclusion complex in 0.86 mL of 0.9% saline to provide 1.0 mL of a solution having a nominal concentration of 6.1 mg/mL of Compound (1c) mono-HCl salt (corresponding to a nominal concentration of 5.5 mg/mL of the Compound (1c) free base).
A 0.5 mL aliquot of this solution was diluted with 5.0 mL of 0.9% saline, and the pH adjusted with 5 μL of a saturated aqueous NaHCO3 solution to provide 5.5 mL of a clear, colorless solution having a nominal concentration of 0.50 mg/mL of Compound (1c) from Compound (1c) mono-hydrochloride and a pH from 5.3 to 5.5. […]

Series [3] in a line: Stability of Compound (1c) free base in PBS buffer (LC/MS/MS). To be noted: PBS buffer pH 7.4, 37° C., 1 μM. The method, then: A stability assay was carried out in 96-well microtiter plates. (S)-3-Amino-4-(5-(bis(2-chloroethyl)amino)-2-methylphenyl) butanoic acid (Compound (1c) free base) was incubated at 37° C. in phosphate buffered saline (PBS buffer), pH 7.4. The reaction mixtures (30 μL) contained a final concentration of 1 μM of Compound (1c). The percent Compound (1c) remaining in the mixture was determined using LC/MS/MS.
At each of the sampling time points, 300 μL of quench solution (50 vol-% acetonitrile, 50 vol-% methanol containing 1.3% (v/v) of 6N HCl) with internal standards (bucetin for positive ESI mode; warfarin for negative ESI mode) was transferred to each well. Plates were sealed and centrifuged at 4° C. for 15 min at 4,000 rpm. The supernatant was transferred to new plates for LC/MS/MS analysis.
All samples were analyzed on LC/MS/MS using an AB Sciex API 4000® instrument, coupled to a Shimadzu LC-20AD LC Pump system. Analytical samples were separated using a Waters Atlantis T3 dC18 reverse phase HPLC column (20 mm×2.1 mm) at a flow rate of 0.4 mL/min. The mobile phases consisted of 0.1% formic acid in water (solvent A) and 0.1% formic acid in 100% acetonitrile (solvent B).

The structures appear in SMILES notation.

Turning to `Cl.Cn1c(CCCC(=O)O)nc2cc(N(CCCl)CCCl)ccc21` [Bendamustine•HCl, 4-(5-(bis(2-chloroethyl)amino)-1-methyl-1H-benzo[d]imidazol-2-yl) butanoic acid monohydrochloride, reference compound], the “% API” value in series [1] (Formulation 4, 0° C., 0.5 hours, 0.4-0.5 mg/mL) is reported as 98%; in series [1] (Formulation 4, 0° C., 2.0 hours, 0.4-0.5 mg/mL), 95%; in series [1] (Formulation 4, 25° C., 0.5 hours, 0.4-0.5 mg/mL), 98%; in series [1] (Formulation 4, 25° C., 0.5 hours, 0.9-1.1 mg/mL), 97%; in series [1] (Formulation 4, 25° C., 0.5 hours, 1.8-2.1 mg/mL), 95%; in series [1] (Formulation 4, 25° C., 2.0 hours, 0.4-0.5 mg/mL), 91%. The “% API” value in series [1] (Formulation 4, 25° C., 2.0 hours, 0.9-1.1 mg/mL) was 95%; in series [1] (Formulation 4, 25° C., 2.0 hours, 1.8-2.1 mg/mL), 89%.
For the molecule `N[C@@H](Cc1ccc(N(CCCl)CCCl)cc1)C(=O)O` [Melphalan free base, melphalan, reference compound], the “% API” value in series [2] (0.5 hours) is reported as 97%; in series [2] (2.0 hours), 84%.
Regarding `Cc1ccc(N(CCCl)CCCl)cc1C[C@H](N)CC(=O)O` [Compound (1c), (S)-3-amino-4-(5-(bis(2-chloroethyl)amino)-2-methylphenyl) butanoic acid], the “Compound (1c) Remaining (%)” value is listed as 100% in series [3] (0 min); 78% in series [3] (15 min); 68% in series [3] (30 min); 56% in series [3] (60 min); 30% in series [3] (120 min); 10% in series [3] (240 min).

These data come from patent publication US20250282895A1, “PHARMACEUTICAL COMPOSITIONS OF CHEMOTHERAPEUTIC AGENTS BASED ON BETA-S[…]-AMINO ACID DERIVATIVES” (priority 2021, published 2025).
